The values that follow come from US6608086B2, “Dihydropyridines and new uses thereof” (Synaptic Pharmaceutical Corporation, priority 1993, dated 2003).

Structures can show the parent of a compound that is named as a salt. Where two headings read alike, the source gives them in different places.

For one assay, the target named is T1, α2A receptor (Homo sapiens, UniProt P08913).
T1 construct: host or cells: LM(tk-) cells, line L-α2A
T1 sequence (P08913 1-465): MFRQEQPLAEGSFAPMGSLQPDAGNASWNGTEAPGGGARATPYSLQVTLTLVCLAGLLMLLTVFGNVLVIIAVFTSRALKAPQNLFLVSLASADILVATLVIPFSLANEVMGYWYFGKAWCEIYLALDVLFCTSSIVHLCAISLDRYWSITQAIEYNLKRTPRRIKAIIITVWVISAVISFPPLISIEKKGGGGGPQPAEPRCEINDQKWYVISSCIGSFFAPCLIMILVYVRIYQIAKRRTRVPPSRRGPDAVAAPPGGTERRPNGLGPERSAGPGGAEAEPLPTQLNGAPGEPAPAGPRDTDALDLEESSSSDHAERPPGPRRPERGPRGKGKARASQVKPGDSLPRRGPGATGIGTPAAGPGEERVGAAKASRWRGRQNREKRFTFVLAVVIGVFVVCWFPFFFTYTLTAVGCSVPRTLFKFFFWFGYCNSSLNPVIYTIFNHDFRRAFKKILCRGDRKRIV
Nature of the assay: Competition binding, [3H]rauwolscine, human α2A receptor. In short, it runs like this: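 Lysates of LM(tk−) cells stably expressing each α2 subtype were suspended in 25 mM glycylglycine buffer (pH 7.6 at room temperature). Equilibrium competition binding used 0.5 nM [3H]rauwolscine, with nonspecific binding defined by 10 μM phentolamine; bound radioligand was separated by GF/B filtration.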

Assay [1] concerns the target T2, α1C Human Adrenergic Receptor (Homo sapiens, UniProt P35348).
T2 construct: The entire coding region of α1C (1401 bp); expressed in transfected cells
T2 sequence (P35348 1-466): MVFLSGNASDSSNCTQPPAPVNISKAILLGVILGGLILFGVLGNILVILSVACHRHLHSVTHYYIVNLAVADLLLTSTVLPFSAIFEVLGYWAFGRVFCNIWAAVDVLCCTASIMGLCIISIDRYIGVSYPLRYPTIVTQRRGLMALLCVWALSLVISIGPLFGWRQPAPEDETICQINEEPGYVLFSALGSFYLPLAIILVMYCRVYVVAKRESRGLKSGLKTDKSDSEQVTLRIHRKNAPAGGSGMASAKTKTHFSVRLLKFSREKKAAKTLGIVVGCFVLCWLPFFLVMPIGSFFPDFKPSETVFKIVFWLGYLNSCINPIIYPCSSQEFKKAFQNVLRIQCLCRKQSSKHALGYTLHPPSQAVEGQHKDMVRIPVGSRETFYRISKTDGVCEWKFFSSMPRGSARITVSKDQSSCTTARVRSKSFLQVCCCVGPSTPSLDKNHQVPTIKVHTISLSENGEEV
In words: Radioligand binding, [3H]prazosin, cloned human α1C adrenergic receptor. In short, it runs like this:
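Antagonist radioligand [3H]prazosin at 0.5 nM labels human α1C receptors in stably transfected LM(tk−) cell membranes over 20 min at 37° C. Phentolamine (10 μM) gives nonspecific binding.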

The target in assay [2] is T3, α1B Human Adrenergic Receptor (Homo sapiens, UniProt P35368).
T3 construct: The entire coding region of α1B (1563 bp); expressed in transfected cells
T3 sequence (P35368 1-520): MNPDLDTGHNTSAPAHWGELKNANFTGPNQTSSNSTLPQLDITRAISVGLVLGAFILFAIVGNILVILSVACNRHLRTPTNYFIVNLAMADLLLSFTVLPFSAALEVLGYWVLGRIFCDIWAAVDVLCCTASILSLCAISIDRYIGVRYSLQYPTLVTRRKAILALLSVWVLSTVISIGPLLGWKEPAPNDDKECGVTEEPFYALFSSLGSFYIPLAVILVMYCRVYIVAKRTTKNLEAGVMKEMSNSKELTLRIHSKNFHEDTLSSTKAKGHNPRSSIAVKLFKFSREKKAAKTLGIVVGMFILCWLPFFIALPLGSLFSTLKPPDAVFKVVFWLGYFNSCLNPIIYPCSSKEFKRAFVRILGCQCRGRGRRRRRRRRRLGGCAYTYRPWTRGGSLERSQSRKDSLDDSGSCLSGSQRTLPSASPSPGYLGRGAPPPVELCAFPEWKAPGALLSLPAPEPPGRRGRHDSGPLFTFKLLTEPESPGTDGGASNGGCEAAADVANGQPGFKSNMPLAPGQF
In words: Radioligand binding, [3H]prazosin, cloned human α1B adrenergic receptor. An outline of the steps: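 Membranes from stably transfected LM(tk−) cells, resuspended in 50 mM Tris-HCl, 1 mM MgCl2, 0.1% ascorbic acid, pH 7.5, were incubated with 0.5 nM [3H]prazosin for 20 min at 37° C. Nonspecific binding defined with 10 μM phentolamine; bound ligand separated by GF/B filtration.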

Setting [3] is: [3H]rauwolscine, LM(tk-) cell line L-α2A, SEM and n in lines below, read-out: pKi alpha-2 2a (converted).
Setting [4] is: pKi alpha-1 1c, cloned human receptor in LM(tk-) cell membranes, SEM and n in lines below.
Setting [5] is: pKi alpha-1 1b, cloned human receptor in LM(tk-) cell membranes, SEM and n in lines below.
The mark [6] stands for this setting: cloned human receptor in LM(tk-) cell membranes, SEM and n in lines below, read-out: pKi alpha-1 1c (converted).
The mark [7] stands for this setting: cloned human receptor in LM(tk-) cell membranes, SEM and n in lines below, read-out: pKi alpha-1 1b (converted).
[8] abbreviates: [3H]rauwolscine, human α2A receptor, LM(tk−) cells, read-out: pKi alpha-2 2a (converted).
[9] abbreviates: pKi alpha-1 1c, cloned human α1C receptor, LM(tk−) cell membranes.
Where [10] appears, read: pKi alpha-1 1b, cloned human α1B receptor, LM(tk−) cell membranes.
Where [11] appears, read: cloned human α1C receptor, LM(tk−) cell membranes, read-out: pKi alpha-1 1c (converted).
[12] abbreviates: cloned human α1B receptor, LM(tk−) cell membranes, read-out: pKi alpha-1 1b (converted).

Take `CCC1=C(C(N)=O)C(c2ccc([N+](=O)[O-])cc2)C(C(=O)NCCCN2CCC(c3ccccc3)(c3ccccc3)CC2)=C(C)N1` (stereo not drawn) [Example 41, 3-Carboxamido-2-ethyl-1,4-dihydro-6-methyl-4-(4-nitrophenyl)-3-{N-[3-(4,4-diphenylpiperidin-1-yl)propyl]}carboxamidopyridine]: the Ki is 427 nM at α2A receptor (setting [3]), 1.82 nM in assay [1] (setting [4]) and 295 nM in assay [2] (setting [5]).

Take `COC(=O)C1=C(C)NC(C)=C(C(=O)NCCCN2CCC(c3ccccc3)(c3ccccc3)CC2)C1c1ccncc1` (stereo not drawn) [Example 5, 1,4-Dihydro-5-methoxycarbonyl-2,6-dimethyl-3-(N-(3-(4,4-diphenylpiperidin-1-yl)propyl)carboxamido)-4-(4-pyridyl)pyridine]: the Ki is 2240 nM at α2A receptor, 11.2 nM in assay [1] (setting [6]) and 832 nM in assay [2] (setting [7]).

`CCC1=C(C(N)=O)C(c2ccc([N+](=O)[O-])cc2)C(C(=O)NCCCN2CCC(C#N)(c3ccccc3)CC2)=C(CC)N1` (racemic) [(±)-102, 5-Carboxamido-3-{N-[(4-cyano-4-phenylpiperidin-1-ly)propyl]carboxamido-2,6-diethyl-1,4-dihydro-4-(4-nitrophenyl)pyridine hydrochloride hydrate]: the Ki at α2A receptor (setting [8]) was 2880 nM; in assay [1] (setting [9]), 3.8 nM; in assay [2] (setting [10]), 1620 nM.

As to `COC(=O)C1=C(C)NC(C)=C(C(=O)NCCCN2CCC(c3ccccc3)(c3ccccc3)CC2)C1C1CCCCC1` (stereo not drawn) [Example 6], the Ki is 832 nM on α2A receptor, 148 nM in assay [1] (setting [6]) and 204 nM in assay [2] (setting [7]).

As to `COC(=O)C1=C(C)NC(C)=C(C(=O)NCCCN2CCC(c3ccccc3)(c3ccccc3)CC2)C1c1ccc2ccccc2c1` (stereo not drawn) [Example 22], the Ki on α2A receptor was 1580 nM; in assay [1] (setting [6]), 36.3 nM; in assay [2] (setting [7]) it was 138 nM.

In the case of `COC(=O)C1=C(C)NC(C)=C(C(=O)NCCCN2CCC(c3ccccc3)(c3ccccc3)CC2)C1c1ccc(Cl)cc1` (stereo not drawn) [Example 10, 4-(4-Chlorophenyl)-1,4-dihydro-5-methoxycarbonyl-2,6-Dimethyl-5-(N-(3-(4,4-diphenylpiperidin-1-yl)propyl)carboxamido)pyridine], the Ki was 2340 nM at α2A receptor, 1.78 nM in assay [1] (setting [6]) and 123 nM in assay [2] (setting [7]).

For the molecule `COC(=O)C1=C(C)NC(C)=C(C(=O)NCCCN2CCC(c3ccccc3)(c3ccccc3)CC2)C1c1ccc(I)cc1` (stereo not drawn) [Example 13, 1,4-Dihydro-4-(4-iodophenyl)-3-methoxycarbonyl-2,6-dimethyl-5-(N-(3-(4,4-diphenylpiperidin-1-yl)propyl)carboxamido)pyridine], the Ki on α2A receptor was 1260 nM; in assay [1] (setting [6]), 7.24 nM; in assay [2] (setting [7]), 166 nM.

On to `CNC(=O)C1=C(C)NC(C)=C(C(=O)NCCCN2CCC(O)(c3ccccc3)CC2)C1c1ccc([N+](=O)[O-])cc1` (stereo not drawn) [Example 162, 1,4-Dihydro-3-{N-[3-(4-hydroxy-4-phenylpiperidin-1-yl)propyl]}carboxamido-2,6-dimethyl-5-(N-methyl)carboxamido-4-(4-nitrophenyl)pyridine], for which the Ki was 631 nM at α2A receptor (setting [8]), 11.5 nM in assay [1] (setting [9]) and 257 nM in assay [2] (setting [10]).

`CCOC(=O)C1=C(CC(=O)NCCCN2CCC(c3ccccc3)(c3ccccc3)CC2)NC(C)=C(C(=O)OC)C1c1ccc([N+](=O)[O-])cc1` (stereo not drawn) [Example 89, 3-Ethoxycarbonyl-1,4-dihydro-5-methoxycarbonyl-6-methyl-4-(4-nitro)phenyl-2-(N-(3-(4,4,-diphenylpiperidin-1-yl)propyl)carboxamido)methylpyridine, fumarate salt]: the Ki at α2A receptor was 2340 nM; in assay [1] (setting [11]), 501 nM; in assay [2] (setting [12]) it was 141 nM.

Consider `CCC1=C(C(=O)NCCCN2CCC(c3ccccc3)(c3ccccc3)CC2)C(c2ccc([N+](=O)[O-])cc2)C(C(=O)OC)=C(C)N1` (stereo not drawn) [Example 73, 2-Ethyl-1,4-dihydro-5-methoxycarbonyl-6-methyl-4-(4-nitro) phenyl-3-(N-(3-(4,4-diphenylpiperidin-1-yl)propyl))carboxamidopyridine], for which the Ki on α2A receptor is 794 nM; in assay [1] (setting [6]), 0.661 nM; in assay [2] (setting [7]), 148 nM.

With `CCC1=C(C(=O)NCCCN2CCC(c3ccccc3)(c3ccccc3)CC2)C(c2ccc([N+](=O)[O-])cc2)C(C(N)=O)=C(C)N1` (stereo not drawn) [Example 81, 5-carboxamido-2-ethyl-1,4-dihydro-6-methyl-4-(4-nitro)phenyl-3-(N-(3-(4,4-diphenylpiperidin-1-yl)propyl))carboxamidopyridine hydrochloride], the figures for the Ki (at α2A receptor (setting [3]); in assay [1] (setting [4]); in assay [2] (setting [5])) were 178 nM, 1.91 nM and 240 nM, respectively.

Consider `COC(=O)C1=C(C)NC(c2ccoc2)=C(C(=O)NCCCN2CCC(c3ccccc3)(c3ccccc3)CC2)C1c1ccc([N+](=O)[O-])cc1` (stereo not drawn) [Example 43, 2-(Furan-3-yl)-, 4-dihydro-5-methoxycarbonyl-6-methyl-4-(4-nitrophenyl)-3-(N-(3-(4,4-diphenylpiperidin-1-yl)propyl)carboxamidopyridine, hydrochloride salt], for which the figures for the Ki (on α2A receptor (setting [3]); in assay [1] (setting [4]); in assay [2] (setting [5])) were 661 nM, 2.4 nM and 182 nM, respectively.

Take `COC(=O)C1=C(C)N(C)C(C)=C(C(=O)OCCCN2CCC(c3ccccc3)(c3ccccc3)CC2)C1c1ccc([N+](=O)[O-])cc1` (stereo not drawn) [Example 92, 1,4-Dihydro-5-methoxycarbonyl-1,2,6-trimethyl-4-(4-nitrophenyl)-3-[3-(4,4-diphenylpiperidin-1-yl)propoxy]carbonylpyridine hydrochloride hydrate]: the Ki is 3160 nM on α2A receptor, 3.09 nM in assay [1] (setting [11]) and 58.9 nM in assay [2] (setting [12]).

Consider `CCC1=C(C(=O)NCCCN2CCC(c3ccccc3)(c3ccccc3)CC2)C(c2ccc([N+](=O)[O-])cc2)C(C(=O)OC(C)(C)C)=C(COCCN=[N+]=[N-])N1` (stereo not drawn) [Example 139], for which the Ki at α2A receptor (setting [8]) was 832 nM; in assay [1] (setting [9]), 23.4 nM; in assay [2] (setting [10]), 141 nM.

As to `COC(=O)C1=C(C)NC(C)=C(C(=O)NCCCN2CCC(c3ccccc3)(c3ccccc3)CC2)C1c1ccc(C#N)cc1` (stereo not drawn) [Example 12, 4-(4-Cyanophenyl)-1,4-dihydro-3-methoxycarbonyl-2,6-dimethyl-5-(N-(3-(4,4-diphenylpiperidin-1-yl)propyl)carboxamido)pyridine], the Ki was 776 nM on α2A receptor, 1.82 nM in assay [1] (setting [6]) and 151 nM in assay [2] (setting [7]).
